Where two headings read alike, the source gives them in different places.
Assays:
L1210 = experiment: cells; format: cell-based, mouse
Protocol: (§1) A population of cells (>1×10^6 cells/mL as determined with a hemocytometer) was diluted with Dulbecco's Modified Eagle Medium (DMEM, Gibco) containing 10% fetal bovine serum (FBS, Gibco) to give a final concentration of 30,000 cells/mL. To each well of a 96-well plate (Corning® Costar®) was added 100 μL of the cell media solution with a multichannel pipet.
(§2) The test compounds were then added to the plate as follows: test compounds were diluted in DMSO to a concentration of 1 mM. 10-Fold serial dilutions in DMSO were next performed on a separate 96-well plate. Fresh culture media (100 μL) was added to each well of cells resulting in 200 μL of medium per well followed by 2 μL of each test agent. Compounds were tested in duplicate (n=2-8 times) at six concentrations between 0-1000 nM or 0-10000 nM. Following the addition of compound, cultures were incubated for an additional 72 hours.
(§3) The plates were incubated at 37° C. for 5 minutes (L1210) or 15 min (HCT116 and HCT116/VM46).

HCT116 = experiment: cells; format: cell-based, human; settings: for IC50: read-out: IC50 HCT116; for potency relative to vinblastine (more potent): vinblastine-sensitive cell lines
Protocol: as §1, §2, §3

Compound	IC50 (L1210; Table 2) [nM]	IC50 (HCT116; Table 2) [nM]	potency relative to vinblastine (more potent) (HCT116) [fold]	IC50 (L1210; Table 3) [nM]	IC50 (HCT116; Table 3) [nM]
CC[C@]1(NC(=O)c2ccc(OC(F)(F)F)c(OC)c2)C[C@H]2CN(CCc3c([nH]c4ccccc34)[C@@](C(=O)OC)(c3cc4c(cc3OC)N(C)[C@H]3[C@@](O)(C(=O)OC)[C@H](OC(C)=O)[C@]5(CC)C=CCN6CC[C@]43[C@@H]65)C2)C1 [Compound 83]	1.3	1.7			
CCC1(NC(=O)c2ccc(SC)cc2)CC2CN(CCc3c([nH]c4ccccc34)C(C(=O)OC)(c3cc4c(cc3OC)N(C)C3C(O)(C(=O)OC)C(OC(C)=O)C5(CC)C=CCN6CCC43C65)C2)C1 (stereo not shown) [Compound 84]	0.4	0.5			
CCC1(NC(=O)c2cccc(SC)c2)CC2CN(CCc3c([nH]c4ccccc34)C(C(=O)OC)(c3cc4c(cc3OC)N(C)C3C(O)(C(=O)OC)C(OC(C)=O)C5(CC)C=CCN6CCC43C65)C2)C1 (stereo not shown) [Compound 85]	5.4	2.3			
CCSc1ccc(C(=O)NC2(CC)CC3CN(CCc4c([nH]c5ccccc45)C(C(=O)OC)(c4cc5c(cc4OC)N(C)C4C(O)(C(=O)OC)C(OC(C)=O)C6(CC)C=CCN7CCC54C76)C3)C2)cc1 (stereo not shown) [Compound 86]	4.9	6.1			
CCC1(NC(=O)c2ccc(SC(C)C)cc2)CC2CN(CCc3c([nH]c4ccccc34)C(C(=O)OC)(c3cc4c(cc3OC)N(C)C3C(O)(C(=O)OC)C(OC(C)=O)C5(CC)C=CCN6CCC43C65)C2)C1 (stereo not shown) [Compound 87]	4.3	4.6			
CCC1(NC(=O)c2ccc(S(=O)(=O)F)cc2)CC2CN(CCc3c([nH]c4ccccc34)C(C(=O)OC)(c3cc4c(cc3OC)N(C)C3C(O)(C(=O)OC)C(OC(C)=O)C5(CC)C=CCN6CCC43C65)C2)C1 (stereo not shown) [Compound 88]	20	30			
CC[C@]1(NC(=O)c2cccc(S(=O)(=O)F)c2)C[C@H]2CN(CCc3c([nH]c4ccccc34)[C@@](C(=O)OC)(c3cc4c(cc3OC)N(C)[C@H]3[C@@](O)(C(=O)OC)[C@H](OC(C)=O)[C@]5(CC)C=CCN6CC[C@]43[C@@H]65)C2)C1 [Compound 89]	40	30			
CC[C@]1(NC(=O)c2ccc(OC)c(F)c2)C[C@H]2CN(CCc3c([nH]c4ccccc34)[C@@](C(=O)OC)(c3cc4c(cc3OC)N(C)[C@H]3[C@@](O)(C(=O)OC)[C@H](OC(C)=O)[C@]5(CC)C=CCN6CC[C@]43[C@@H]65)C2)C1 [Compound 90]	0.6	0.6			
CC[C@]1(NC(=O)c2ccc(OC)cc2F)C[C@H]2CN(CCc3c([nH]c4ccccc34)[C@@](C(=O)OC)(c3cc4c(cc3OC)N(C)[C@H]3[C@@](O)(C(=O)OC)[C@H](OC(C)=O)[C@]5(CC)C=CCN6CC[C@]43[C@@H]65)C2)C1 [Compound 91]	6.2	6.4			
CC[C@]1(NC(=O)c2ccc(OC)c(Cl)c2)C[C@H]2CN(CCc3c([nH]c4ccccc34)[C@@](C(=O)OC)(c3cc4c(cc3OC)N(C)[C@H]3[C@@](O)(C(=O)OC)[C@H](OC(C)=O)[C@]5(CC)C=CCN6CC[C@]43[C@@H]65)C2)C1 [Compound 92]	3.7	5.1			
CCC1(NC(=O)c2ccc(OC)c(Br)c2)CC2CN(CCc3c([nH]c4ccccc34)C(C(=O)OC)(c3cc4c(cc3OC)N(C)C3C(O)(C(=O)OC)C(OC(C)=O)C5(CC)C=CCN6CCC43C65)C2)C1 (stereo not shown) [Compound 93]	5.1	6.2			
CCOc1ccc(C(=O)N[C@@]2(CC)C[C@H]3CN(CCc4c([nH]c5ccccc45)[C@@](C(=O)OC)(c4cc5c(cc4OC)N(C)[C@H]4[C@@](O)(C(=O)OC)[C@H](OC(C)=O)[C@]6(CC)C=CCN7CC[C@]54[C@@H]76)C3)C2)cc1Cl [Compound 94]	4.2	6.1			
CCOc1ccc(C(=O)N[C@@]2(CC)C[C@H]3CN(CCc4c([nH]c5ccccc45)[C@@](C(=O)OC)(c4cc5c(cc4OC)N(C)[C@H]4[C@@](O)(C(=O)OC)[C@H](OC(C)=O)[C@]6(CC)C=CCN7CC[C@]54[C@@H]76)C3)C2)cc1Br [Compound 95]	3.9	6.2			
CC[C@]1(NC(=O)c2cc(Cl)c(OC)c(Cl)c2)C[C@H]2CN(CCc3c([nH]c4ccccc34)[C@@](C(=O)OC)(c3cc4c(cc3OC)N(C)[C@H]3[C@@](O)(C(=O)OC)[C@H](OC(C)=O)[C@]5(CC)C=CCN6CC[C@]43[C@@H]65)C2)C1 [Compound 96]	3.1	4.2			
CC[C@]1(NC(=O)c2ccc(OC)c(C)c2)C[C@H]2CN(CCc3c([nH]c4ccccc34)[C@@](C(=O)OC)(c3cc4c(cc3OC)N(C)[C@H]3[C@@](O)(C(=O)OC)[C@H](OC(C)=O)[C@]5(CC)C=CCN6CC[C@]43[C@@H]65)C2)C1 [Compound 97]	0.6	0.7	10		
CCC1(NC(=O)c2ccc(C)c(OC)c2)CC2CN(CCc3c([nH]c4ccccc34)C(C(=O)OC)(c3cc4c(cc3OC)N(C)C3C(O)(C(=O)OC)C(OC(C)=O)C5(CC)C=CCN6CCC43C65)C2)C1 (stereo not shown) [Compound 98]	4.2	3.3			

Compound	IC50 (L1210; Table 2) [nM]	IC50 (HCT116; Table 2) [nM]	potency relative to vinblastine (more potent) (HCT116) [fold]	IC50 (L1210; Table 3) [nM]	IC50 (HCT116; Table 3) [nM]
CCC1(NC(=O)c2cc(C)c(OC)c(C)c2)CC2CN(CCc3c([nH]c4ccccc34)C(C(=O)OC)(c3cc4c(cc3OC)N(C)C3C(O)(C(=O)OC)C(OC(C)=O)C5(CC)C=CCN6CCC43C65)C2)C1 (stereo not shown) [Compound 99]	0.5	0.65	10		
CC[C@]1(NC(=O)c2cc(C)c(OCc3ccccc3)c(C)c2)C[C@H]2CN(CCc3c([nH]c4ccccc34)[C@@](C(=O)OC)(c3cc4c(cc3OC)N(C)[C@H]3[C@@](O)(C(=O)OC)[C@H](OC(C)=O)[C@]5(CC)C=CCN6CC[C@]43[C@@H]65)C2)C1 [Compound 100]	30	30			
CCC1(NC(=O)c2ccc(C)c(N)c2)CC2CN(CCc3c([nH]c4ccccc34)C(C(=O)OC)(c3cc4c(cc3OC)N(C)C3C(O)(C(=O)OC)C(OC(C)=O)C5(CC)C=CCN6CCC43C65)C2)C1 (stereo not shown) [Compound 101]	0.6	0.7			
CCC1(NC(=O)c2ccc(C)c(NC(=O)OC(C)(C)C)c2)CC2CN(CCc3c([nH]c4ccccc34)C(C(=O)OC)(c3cc4c(cc3OC)N(C)C3C(O)(C(=O)OC)C(OC(C)=O)C5(CC)C=CCN6CCC43C65)C2)C1 (stereo not shown) [Compound 102]	6	7.1			
CCC1(NC(=O)c2ccc(C)c(NC(C)=O)c2)CC2CN(CCc3c([nH]c4ccccc34)C(C(=O)OC)(c3cc4c(cc3OC)N(C)C3C(O)(C(=O)OC)C(OC(C)=O)C5(CC)C=CCN6CCC43C65)C2)C1 (stereo not shown) [Compound 103]	5.4	4.3			
CC[C@]1(NC(=O)c2ccc(N)c(C)c2)C[C@H]2CN(CCc3c([nH]c4ccccc34)[C@@](C(=O)OC)(c3cc4c(cc3OC)N(C)[C@H]3[C@@](O)(C(=O)OC)[C@H](OC(C)=O)[C@]5(CC)C=CCN6CC[C@]43[C@@H]65)C2)C1 [Compound 104]	0.6	0.6			
CC[C@]1(NC(=O)c2ccc(NC(=O)OC(C)(C)C)c(C)c2)C[C@H]2CN(CCc3c([nH]c4ccccc34)[C@@](C(=O)OC)(c3cc4c(cc3OC)N(C)[C@H]3[C@@](O)(C(=O)OC)[C@H](OC(C)=O)[C@]5(CC)C=CCN6CC[C@]43[C@@H]65)C2)C1 [Compound 105]	5.6	5.8			
CC[C@]1(NC(=O)c2cccc(N3CCOCC3)c2)C[C@H]2CN(CCc3c([nH]c4ccccc34)[C@@](C(=O)OC)(c3cc4c(cc3OC)N(C)[C@H]3[C@@](O)(C(=O)OC)[C@H](OC(C)=O)[C@]5(CC)C=CCN6CC[C@]43[C@@H]65)C2)C1 [Compound 106]	4.8	2.8			
CCC1(NC(=O)c2ccc(C)c(NC(=O)c3ccccc3)c2)CC2CN(CCc3c([nH]c4ccccc34)C(C(=O)OC)(c3cc4c(cc3OC)N(C)C3C(O)(C(=O)OC)C(OC(C)=O)C5(CC)C=CCN6CCC43C65)C2)C1 (stereo not shown) [Compound 107]	30	7.6			
CCC1(NC(=O)C=Cc2ccccc2)CC2CN(CCc3c([nH]c4ccccc34)C(C(=O)OC)(c3cc4c(cc3OC)N(C)C3C(O)(C(=O)OC)C(OC(C)=O)C5(CC)C=CCN6CCC43C65)C2)C1 (stereo not shown) [Compound 108]				0.8	0.9
CCC1(NC(=O)C=Cc2ccncc2)CC2CN(CCc3c([nH]c4ccccc34)C(C(=O)OC)(c3cc4c(cc3OC)N(C)C3C(O)(C(=O)OC)C(OC(C)=O)C5(CC)C=CCN6CCC43C65)C2)C1 (stereo not shown) [Compound 109]				0.6	0.7
CCC1(NC(=O)C=Cc2cccnc2)CC2CN(CCc3c([nH]c4ccccc34)C(C(=O)OC)(c3cc4c(cc3OC)N(C)C3C(O)(C(=O)OC)C(OC(C)=O)C5(CC)C=CCN6CCC43C65)C2)C1 (stereo not shown) [Compound 110]				5.9	5.7
CC[C@]1(NC(=O)/C=C/c2ccccn2)C[C@H]2CN(CCc3c([nH]c4ccccc34)[C@@](C(=O)OC)(c3cc4c(cc3OC)N(C)[C@H]3[C@@](O)(C(=O)OC)[C@H](OC(C)=O)[C@]5(CC)C=CCN6CC[C@]43[C@@H]65)C2)C1 [Compound 111]				0.7	0.7
CC[C@]1(NC(=O)/C=C/c2ccoc2)C[C@H]2CN(CCc3c([nH]c4ccccc34)[C@@](C(=O)OC)(c3cc4c(cc3OC)N(C)[C@H]3[C@@](O)(C(=O)OC)[C@H](OC(C)=O)[C@]5(CC)C=CCN6CC[C@]43[C@@H]65)C2)C1 [Compound 112]				0.7	0.7
CC[C@]1(NC(=O)/C=C/c2ccco2)C[C@H]2CN(CCc3c([nH]c4ccccc34)[C@@](C(=O)OC)(c3cc4c(cc3OC)N(C)[C@H]3[C@@](O)(C(=O)OC)[C@H](OC(C)=O)[C@]5(CC)C=CCN6CC[C@]43[C@@H]65)C2)C1 [Compound 113]				1.3	1.3

Source: patent US10689381B2 (priority 2017, dated 2020)
